Seven compounds from article PMC8217813, “Bridging Computational Vaccinology and Vaccine Development Through Systematic Identification, Characterization, and Downselection of Conserved and Variable Circumsporozoite Protein CD4 T Cell Epitopes From Diverse Plasmodium falciparum Strains” (Frontiers in Immunology, 2021) can be followed below.

In general, IC50 refers to the concentration that gives 50% inhibition.

For one test, the target named is T1, HLA A*0201 (Homo sapiens, UniProt P04439, D140Y/D185E/D98H/E176V/E277Q/G131W/G231S/I119V/I121R/I166T/I218V/L300P/L318F/N151K/N90K/P208A/P217A/Q86G/Q94H/R138H/R169H/T345S).
T1 construct: Pure Protein, LLC (ran the assay)
Kind of test: biochemical. It is filed as binding.

A further test concerns the target T2, HLA B*0702 (Homo sapiens, UniProt P01889).
T2 construct: Pure Protein, LLC (ran the assay)
Kind of test: biochemical. It is filed as binding. As to conditions: allele B0702; cell-free competition with fluorescently labeled control peptide, fluorescence polarization at 72 hours. A general note: Fluorescence polarisation rises when a labelled molecule tumbles more slowly, as on binding a larger partner.

The target in the next test is T3, HLA A*0301 (Homo sapiens, UniProt P04439).
T3 construct: Pure Protein, LLC (ran the assay)
Kind of test: In vitro class I HLA binding competition assay (fluorescence polarization). As to conditions: allele A0301; cell-free competition with fluorescently labeled control peptide, fluorescence polarization at 72 hours.

Setting [1] is: allele A0201, cell-free competition with fluorescently labeled control peptide, fluorescence polarization at 72 hours, read-out: IC50.

Where two headings read alike, the source gives them in different places. Peptide text beside a SMILES is read from it.

As for `CC[C@H](C)[C@H](NC(=O)[C@H](CCCCN)NC(=O)[C@H](CC(N)=O)NC(=O)[C@H](CC(C)C)NC(=O)[C@H](Cc1ccc(O)cc1)NC(=O)[C@H](CCC(=O)O)NC(=O)[C@H](CCCCN)NC(=O)[C@@H](NC(=O)[C@@H](N)Cc1c[nH]cn1)[C@@H](C)CC)C(=O)O` [Cluster 315_3D7] (H-HIKEYLNKI-OH), at HLA A*0201 (setting [1]), the IC50 came to 259 µM.

On to `CC[C@H](C)[C@H](NC(=O)[C@H](CCCCN)NC(=O)[C@H](CCCCN)NC(=O)[C@H](CC(C)C)NC(=O)[C@H](Cc1ccc(O)cc1)NC(=O)[C@H](CCC(=O)O)NC(=O)[C@@H](NC(=O)[C@@H](NC(=O)[C@@H](N)Cc1c[nH]cn1)[C@@H](C)CC)[C@@H](C)O)C(=O)O` [Cluster 315_ICS2] (H-HITEYLKKI-OH), for which it took 148 µM to reach half-maximal inhibition at HLA A*0201 (IC50).

Consider `CC[C@H](C)[C@H](NC(=O)[C@H](CCCCN)NC(=O)[C@H](CC(C)C)NC(=O)[C@@H](N)Cc1ccc(O)cc1)C(=O)N[C@H](C(=O)N[C@@H](CCC(N)=O)C(=O)N[C@@H](CC(N)=O)C(=O)N[C@@H](CO)C(=O)N[C@@H](CC(C)C)C(=O)O)[C@@H](C)CC` [Cluster 319_ICS5] (H-YLKIIQNSL-OH), for which half-maximal inhibition at HLA A*0201 (IC50) was put at 4.88 µM.

On HLA A*0201, `CC[C@H](C)[C@H](NC(=O)[C@H](CCCCN)NC(=O)[C@H](CCCCN)NC(=O)[C@H](CC(C)C)NC(=O)[C@@H](N)Cc1ccc(O)cc1)C(=O)N[C@@H](CCC(N)=O)C(=O)N[C@@H](Cc1ccc(O)cc1)C(=O)N[C@@H](CO)C(=O)N[C@@H](CC(C)C)C(=O)O` [Cluster 319_ICS7] (H-YLKKIQYSL-OH) gave an IC50 of 2.58 µM.

For `CC[C@H](C)[C@H](NC(=O)CNC(=O)[C@H](CC(N)=O)NC(=O)CNC(=O)[C@H](CS)NC(=O)[C@@H](NC(=O)[C@@H](NC(=O)[C@@H](N)CO)C(C)C)[C@@H](C)O)C(=O)N[C@@H](CCC(N)=O)C(=O)N[C@H](C(=O)O)C(C)C` [Cluster 335_3D7] (H-SVTCGNGIQV-OH), on HLA B*0702, the “IC50 (nM)” value was “Non-Binder”. Moreover, at HLA A*0201 (setting [1]), the half-maximal inhibitory concentration (IC50) is 489 µM.

For `CC[C@H](C)[C@H](NC(=O)[C@H](CO)NC(=O)[C@H](CO)NC(=O)[C@H](CC(N)=O)NC(=O)[C@@H](NC(=O)[C@@H](NC(=O)[C@H](CC(N)=O)NC(=O)[C@H](Cc1ccccc1)NC(=O)[C@@H](NC(=O)[C@@H](N)CO)C(C)C)C(C)C)C(C)C)C(=O)O` [Cluster 376_3D7] (H-SVFNVVNSSI-OH), the “IC50 (nM)” value at HLA B*0702 and on HLA A*0301 was “Non-Binder” throughout. In addition, the IC50 on HLA A*0201 (setting [1]) amounted to 342 µM.

For CKMEKCSSV [369_3D7 (9)], the “IC50 (nM)” value on HLA A*0201 (allele A0201, cell-free competition with fluorescently labeled control peptide, fluorescence polarization at 72 hours) is recorded as “Non-Binder”.
